Common to all, as to test: DTP human tumour cell line panel, 48 h
The subject of assay [1] is CCRF-CEM.
The test system of assay [2] is T47D.
For assay [3], the system named is KM12.
The test system of assay [4] is MCF7.
Assay [5] relates to RXF 393.
Assay [6] has as its system UACC-62.
Assay [7] concerns M14.
In assay [8] the test system is CAKI-1.
The test system of assay [9] is OVCAR-4.
Assay [10] has as its system ACHN.
In assay [11] the test system is MDA-N.
Assay [12] has as its system RPMI-8226.
Assay [13] relates to Malme-3M.
Assay [14] deals with HCT-15.
Assay [15] deals with PC-3.
In assay [16] the test system is BT-549.

From ChEMBL document CHEMBL1201862, “PubChem BioAssay data set” (2004) come the findings set out here.

Each structure is given as a SMILES string.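 Following 48 hours of exposure in 96-well plates, responses at five concentrations were used to interpolate endpoints linearly. GI50 = concentration required for 50% inhibition of growth.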 Activity calls are given as the source filed them. No stated cut-off is given here; in the data, active = GI50 up to about 1.1 µM and inactive = higher. Where only a bound is given, the exact number is not on record here.

Take `CC(C)CC(NC(=O)C(O)C(N)Cc1ccccc1)C(=O)O` (centres undefined): the GI50 in assay [1], in assay [2], in assay [3], in assay [4], in assay [5] and in assay [6] was > 100 µM (inactive) throughout. Besides, the GI50 in assay [7], in [8], in assay [9], in [10], in assay [11] and in assay [12] was > 100 µM (inactive) each time. The GI50 in assay [13] is > 100 µM (inactive); in assay [14], above 100 µM; in [15] it was > 100 µM (inactive).

As to `COC(=O)c1ccc(S)c(S(=O)(=O)Nc2nc(N)n[nH]2)c1`, the GI50 in assay [1], in [2], in assay [16], in [3], in assay [6] and in assay [7] was > 100 µM (inactive) throughout. In addition, the GI50 in [8], in [9], in [10], in [11], in assay [12] and in [13] was > 100 µM (inactive) each time. Besides, the concentration for 50% growth inhibition (GI50) in assay [14] was above 100 µM; in assay [15], > 100 µM (inactive).

For the molecule `O=S(=O)(OI(O)CC(F)(F)F)C(F)(F)F`, the GI50 in assay [1], in [2], in assay [16], in assay [3], in assay [4] and in assay [5] was > 100 µM (inactive) throughout. In addition, the GI50 in assay [6], in [7], in assay [8], in assay [9], in [10] and in assay [12] was > 100 µM (inactive) throughout. Besides, the results for the 50% growth inhibitory concentration (GI50) in assay [14] and in [15] were above 100 µM and > 100 µM (inactive), respectively.

With `Brc1sc(Br)c2c1[C@H](Br)C[C@@H]2Br`, the GI50 in assay [1] was 31.1 µM (inactive); in assay [2] it was 26.1 µM (inactive); in assay [16], 29 µM (inactive); in assay [3] it was 44.9 µM (inactive); in assay [4] it was 29.6 µM (inactive); in assay [5], 0.0689 µM (active). In addition, the GI50 in [6] was 31.3 µM (inactive); in assay [7] it was 29.2 µM (inactive); in assay [8], 33.8 µM (inactive); in [9], 23.5 µM (inactive); in [10], 32.8 µM (inactive); in assay [11], 38.1 µM (inactive). Further, the GI50 in assay [13] was 23.9 µM (inactive); in [14], 28.4 µM.

On to `Cc1oc(N)c(S(=O)(=O)c2cc3ccccc3[n+]([O-])c2N)c1C`, for which the GI50 in assay [2], in [16], in assay [3], in [4], in assay [6] and in [7] was > 100 µM (inactive) in each case. Further, the GI50 in assay [8], in assay [9], in assay [10], in [11], in assay [12] and in [13] was > 100 µM (inactive) each time. Further, the GI50 in assay [14] was above 100 µM; in [15], > 100 µM (inactive).

As to `Cc1cc(-n2c(/C=C/c3ccc(Cl)cc3)nc3cc(Cl)ccc3c2=O)on1`, the GI50 in assay [1] was > 50 µM (inactive); in assay [2], > 50 µM (inactive); in assay [16], > 50 µM (inactive); in assay [3], > 50 µM (inactive); in [4], 18.9 µM (inactive); in assay [6], > 50 µM (inactive). For the same molecule, the GI50 in assay [7] was 12.7 µM (inactive); in assay [8], > 50 µM (inactive); in assay [9] it was 1.25 µM (inactive); in [10] it was 7.57 µM (inactive); in [11], 24.8 µM (inactive); in [13], 24 µM (inactive). The GI50 in assay [14] was 28.1 µM; in [15] it was > 50 µM (inactive).

For `CC(=O)NC(C)(C)C1CC=C(C)CC1` (centres undefined), the GI50 in assay [1], in [16], in assay [3], in assay [4], in [5] and in assay [6] was > 100 µM (inactive) each time. The GI50 in assay [7], in [8], in [9], in [10], in assay [11] and in assay [12] was > 100 µM (inactive) each time. Further, the GI50 is > 100 µM (inactive) in assay [13], above 100 µM in assay [14] and > 100 µM (inactive) in [15].

Regarding `CC1(C)N=C(C2CCCN2C(=O)OCc2ccccc2)OC1=O` (centres undefined), the GI50 in [1] is > 100 µM (inactive); in [16], > 100 µM (inactive); in assay [3], > 100 µM (inactive); in assay [4] it was > 100 µM (inactive); in assay [5], 30 µM (inactive); in [6], > 100 µM (inactive). Moreover, the GI50 in assay [7], in assay [8], in [10], in [11], in assay [12] and in [13] was > 100 µM (inactive) in each case. The figures for the GI50 in assay [14] and in assay [15] were above 100 µM and > 100 µM (inactive), respectively.

`[N-]=[N+]=NCc1cccc(Nc2cc(=O)[nH]c(=O)[nH]2)c1`: the GI50 is > 100 µM (inactive) in assay [1]; 51.2 µM (inactive) in assay [2]; > 100 µM (inactive) in [16]; > 100 µM (inactive) in assay [3]; > 100 µM (inactive) in assay [4]; > 100 µM (inactive) in assay [5]. The GI50 in [6], in assay [7], in [8], in [10], in [11] and in assay [12] was > 100 µM (inactive) in each case. The GI50 in assay [13] was > 100 µM (inactive); in [14] it was above 100 µM.

On to `O=C(O)C1C(Br)(c2ccccc2)C1(Br)c1ccccc1` (centres undefined), for which the GI50 is 17.6 µM (inactive) in assay [2]; 19.9 µM (inactive) in assay [16]; 33.4 µM (inactive) in assay [3]; 22 µM (inactive) in assay [4]; 19.5 µM (inactive) in assay [5]; 17.9 µM (inactive) in [6]. Also, the GI50 in assay [7] was 48.2 µM (inactive); in assay [8], 23.9 µM (inactive); in assay [9], 28.7 µM (inactive); in assay [10] it was 14.3 µM (inactive); in [12], 11.8 µM (inactive); in assay [13] it was 35.6 µM (inactive). Moreover, the GI50 is 18.5 µM in [14] and 36.5 µM (inactive) in assay [15].

Turning to `Cn1nc(C(=O)N2CC(CCl)c3c2cc(N)c2ccccc32)cc1NC(=O)Nc1cc(C(=O)N2CC(CCl)c3c2cc(N)c2ccccc32)nn1C` (centres undefined), the 50% growth inhibitory concentration (GI50) in assay [1] was < 0.01 µM (active); in [2] it was < 0.01 µM (active); in [16], 0.0718 µM (active); in assay [3], 0.948 µM (active); in assay [5] it was 0.0447 µM (active); in assay [6], 0.107 µM (active). Besides, the GI50 in [7] was 0.349 µM (active); in assay [8] it was 0.254 µM (active); in assay [9], 0.449 µM (active); in assay [10], 0.508 µM (active); in [11], 0.157 µM (active); in assay [12], 3.3 µM (inactive). The GI50 was 0.21 µM (active) in [13], 44.3 µM in assay [14] and 0.165 µM (active) in assay [15].

Consider `O=c1cccc2n1C[C@H]1CNC[C@H]2C1`, for which the GI50 in assay [1] is > 100 µM (inactive); in assay [16] it was > 100 µM (inactive); in assay [3] it was > 100 µM (inactive); in [4], > 100 µM (inactive); in assay [5], 47 µM (inactive); in assay [6] it was > 100 µM (inactive). Besides, the GI50 in [7], in assay [8], in assay [9], in [10], in assay [11] and in assay [12] was > 100 µM (inactive) in each case. Besides, the GI50 in assay [13] is > 100 µM (inactive); in [14], above 100 µM; in [15] it was > 100 µM (inactive).

As for `CCCCN=C(OC1C=CCCC1)SC` (centres undefined), the GI50 in assay [1], in assay [2], in [16], in assay [4], in [6] and in assay [7] was > 100 µM (inactive) throughout. The GI50 is > 100 µM (inactive) in assay [9]; > 100 µM (inactive) in [10]; > 100 µM (inactive) in assay [11]; > 100 µM (inactive) in assay [12]; > 100 µM (inactive) in assay [13]; above 100 µM in assay [14]. For the same molecule, the GI50 in assay [15] is > 100 µM (inactive).

Take `COc1ccccc1-c1cc(O)c2c(C)cc(C)nc2n1`: the GI50 in [1] is 47.9 µM (inactive); in [2], 8.13 µM (inactive); in assay [16] it was 96.2 µM (inactive); in assay [3], 29.1 µM (inactive); in assay [4], 46.8 µM (inactive); in [5], 63.7 µM (inactive). Further, the GI50 in [6] is 71.9 µM (inactive); in assay [7], 79.8 µM (inactive); in [8] it was 40.3 µM (inactive); in [9], 56.1 µM (inactive); in assay [10] it was 46.3 µM (inactive); in assay [12], 38.4 µM (inactive). Besides, the GI50 in [13] is 48 µM (inactive); in assay [14] it was 58.3 µM.
